Key:
windgrass = test: Test C pre-/postemergence test; format: in vivo, Apera spica-venti; conditions: Postemergence; for Plant response rating, Windgrass: scale 0 to 100, 0 no effect, 100 complete control
Description: Seeds of plant species selected from blackgrass (Alopecurus myosuroides), downy brome (Bromus tectorum), green foxtail (Setaria viridis), Italian ryegrass (Lolium multiflorum), wheat (Triticum aestivum), wild oat (Avena fatua), catchweed bedstraw (Galium aparine), Russian thistle (Salsola kali), […] (Cynodon dactylon), Surinam grass (Brachiaria decumbens), cocklebur (Xanthium strumarium), corn (Zea mays), crabgrass (Digitaria sanguinalis), woolly cupgrass (Eriochloa villosa), giant foxtail (Setaria faberii), Goosegrass (Eleusin indica), johnsongrass (Sorghum halepense), kochia (Kochia scoparia), lambsquarters (Chenopodium album), morningglory (Ipomoea coccinea), eastern black nightshade (Solanum ptycanthum), yellow nutsedge (Cyperus esculentus), pigweed (Amaranthus retroflexus), common ragweed (Ambrosia elation), soybean (Glycine max), common (oilseed) sunflower (Helianthus annuus), and velvetleaf (Abutilon theophrasti) were planted and treated preemergence with test chemicals formulated in a non-phytotoxic solvent mixture which included a surfactant. At the same time, plants selected from these crop and weed species and also winter barley (Hordeum vulgare), canarygrass (Phalaris minor), and chickweed (Stellaria media) were treated with postemergence applications of some of the test chemicals formulated in the same manner. Plants ranged in height from 2 to 18 cm (1- to 4-leaf stage) for postemergence treatments. […] At time of treatment, test pots were flooded to 3 cm above the soil surface, treated by application of test compounds directly to the paddy water, and then maintained at that water depth for the duration of the test. […] A dash (-) response means no test result.

winter barley = test: Test C postemergence test; format: in vivo, Hordeum vulgare; conditions: for Plant response rating (0 to 100), Barley: 31 g ai/ha; for Plant response rating, Barley: scale 0 to 100, 0 no effect, 100 complete control
Protocol: (§1) At the same time, plants selected from these crop and weed species and also winter barley (Hordeum vulgare), canarygrass (Phalaris minor), and chickweed (Stellaria media) were treated with postemergence applications of some of the test chemicals formulated in the same manner. Plants ranged in height from 2 to 18 cm (1- to 4-leaf stage) for postemergence treatments. […] At time of treatment, test pots were flooded to 3 cm above the soil surface, treated by application of test compounds directly to the paddy water, and then maintained at that water depth for the duration of the test. Treated plants and controls were maintained in a greenhouse for 13 to 15 days, after which time all species were compared to controls and visually evaluated. […] A dash (-) response means no test result.

canarygrass = test: Test C postemergence test; format: in vivo, Phalaris minor; conditions: for Plant response rating (0 to 100), Canarygrass: 31 g ai/ha; for Plant response rating, Canarygrass: scale 0 to 100, 0 no effect, 100 complete control
Protocol: as §1

chickweed = test: Test C postemergence test; format: in vivo, Stellaria media; conditions: for Plant response rating (0 to 100), Chickweed: 31 g ai/ha; for Plant response rating, Chickweed: scale 0 to 100, 0 no effect, 100 complete control
Protocol: as §1

guineagrass = test: Test F preemergence test; format: in vivo, Panicum maximum; conditions: scale 0 to 100
Description: (§2) Seeds of plant species selected from bermudagrass (Cynodon dactylon), Surinam grass (Brachiaria decumbens), large crabgrass (Digitaria sanguinalis), green foxtail (Setaria viridis), goosegrass (Eleusine indica), johnsongrass (Sorghum halepense), kochia (Kochia scoparia), pitted morningglory (Ipomoea lacunosa), purple nutsedge (Cyperus rotundus), common ragweed (Ambrosia elation), mustard (Brassica nigra), guineagrass (Panicum maximum), […] (Paspalum dilatatum), barnyardgrass (Echinochloa crus-galli), southern sandbur (Cenchrus echinatus), common sowthistle (Sonchus oleraceous), prickly […] spinosa), Italian ryegrass (Lolium multiflorum), common purslane (Portulaca oleracea), broadleaf signalgrass (Brachiaria platyphylla), common groundsel (Senecio vulgaris), common chickweed (Stellaria media), Virginia dayflower (Commelina virginica), annual bluegrass (Poa annua), naked crabgrass (Digitaria nuda), […] cochinchinensis), quackgrass (Elytrigia repens), Canada horseweed (Conyza canadensis), field bindweed (Convolvulus arvensis), […] (Bidens bipinnata), common mallow (Malva sylvestris), Russian thistle (Salsola kali), and sugarcane (Saccharum officinarum) were planted and treated preemergence with test chemicals formulated in a non-phytotoxic solvent mixture which included a surfactant. At a different time, sugarcane was treated with postemergence applications of some of the test chemicals formulated in the same manner. Plants were approximately 3- to 4-leaf stage for the postemergence treatments. Treated plants and controls were maintained in a greenhouse for 14 to 21 days, after which time all species were compared to controls and visually evaluated. […] A dash (-) response means no test result.

common sowthistle = test: Test F preemergence test; format: in vivo, Sonchus oleraceous; conditions: scale 0 to 100
Description: as §2

common chickweed = test: Test F preemergence test; format: in vivo, Stellaria media; conditions: scale 0 to 100
Description: as §2

Canada horseweed = test: Test F preemergence test; format: in vivo, Conyza canadensis; conditions: scale 0 to 100
Description: as §2

spanishneedles = test: Test F preemergence test; format: in vivo, Bidens bipinnata; conditions: scale 0 to 100
Description: as §2

Row | Compound | Plant response rating (0 to 100), Windgrass (windgrass; 31 g ai/ha) | Plant response rating (0 to 100), Windgrass (windgrass; 62 g ai/ha) | Plant response rating, Windgrass (windgrass; 125 g ai/ha) | Plant response rating, Windgrass (windgrass; 250 g ai/ha) | Plant response rating (0 to 100), Barley (winter barley) | Plant response rating, Barley (winter barley; 62 g ai/ha) | Plant response rating, Barley (winter barley; 125 g ai/ha) | Plant response rating, Barley (winter barley; 250 g ai/ha) | Plant response rating (0 to 100), Canarygrass (canarygrass) | Plant response rating, Canarygrass (canarygrass; 62 g ai/ha) | Plant response rating, Canarygrass (canarygrass; 125 g ai/ha) | Plant response rating, Canarygrass (canarygrass; 250 g ai/ha) | Plant response rating (0 to 100), Chickweed (chickweed) | Plant response rating, Chickweed (chickweed; 62 g ai/ha) | Plant response rating, Chickweed (chickweed; 125 g ai/ha) | Guineagrass plant response rating (guineagrass; 62 g ai/ha, Preemergence) | Guineagrass plant response rating (guineagrass; 125 g ai/ha, preemergence) | Plant response rating, Guineagrass (guineagrass; Preemergence, 31 g ai/ha) | Sowthistle plant response rating (common sowthistle; 125 g ai/ha, preemergence) | Plant response rating, Sowthistle (common sowthistle; Preemergence, 62 g ai/ha) | other results
1 | CCn1nc(C(F)(F)F)c(CS(=O)(=O)c2cc(C)cc[n+]2[O-])c1OCC(F)(F)F [Compound 64] | 0 | 90 | 98 | 100 | 0 | 0 | 5 | 20 | 0 | 0 | 5 | 10 | 0 | 0 | 0 | 100 | 100 | 98 | 100 | 100 | Plant response rating, Chickweed (chickweed; 250 g ai/ha): 0; Plant response rating, Guineagrass (guineagrass; 16 g ai/ha, preemergence): 80; Plant response rating, Sowthistle (common sowthistle; Preemergence, 31 g ai/ha): 0; Plant response rating, Chickweed (common chickweed; 16 g ai/ha, preemergence): 65; Chickweed plant response rating (common chickweed; 62 g ai/ha, Preemergence): 100; Chickweed plant response rating (common chickweed; 125 g ai/ha, preemergence): 100; Plant response rating, Chickweed (common chickweed; Preemergence, 31 g ai/ha): 100; Plant response rating, Horseweed (Canada horseweed; 16 g ai/ha, preemergence): 0; Horseweed plant response rating (Canada horseweed; 62 g ai/ha, Preemergence): 50; Horseweed plant response rating (Canada horseweed; 125 g ai/ha, preemergence): 100; Plant response rating, Horseweed (Canada horseweed; Preemergence, 31 g ai/ha): 0; Plant response rating, Spanishneedles (spanishneedles; 16 g ai/ha, preemergence): 30; Spanishneedles plant response rating (spanishneedles; 125 g ai/ha, preemergence): 60; Plant response rating, Spanishneedles (spanishneedles; Preemergence, 62 g ai/ha): 40
2 | Cn1nc(C(F)(F)F)c(C[S+]([O-])c2ccc(Cl)c[n+]2[O-])c1OCC(F)(F)F (racemic) [Compound 62] | 70 | 80 | 90 | 100 | 0 | 0 | 10 | 40 | 0 | 0 | 0 | 10 | 0 | 0 | 0 | 100 | 100 | 80 | 98 | 98 | Plant response rating, Chickweed (chickweed; 250 g ai/ha): 70; Plant response rating, Guineagrass (guineagrass; 16 g ai/ha, preemergence): 70; Plant response rating, Sowthistle (common sowthistle; 16 g ai/ha, preemergence): 0; Plant response rating, Sowthistle (common sowthistle; Preemergence, 31 g ai/ha): 95; Plant response rating, Chickweed (common chickweed; 16 g ai/ha, preemergence): 100; Chickweed plant response rating (common chickweed; 62 g ai/ha, Preemergence): 100; Chickweed plant response rating (common chickweed; 125 g ai/ha, preemergence): 100; Plant response rating, Chickweed (common chickweed; Preemergence, 31 g ai/ha): 100; Plant response rating, Horseweed (Canada horseweed; 16 g ai/ha, preemergence): 0; Horseweed plant response rating (Canada horseweed; 62 g ai/ha, Preemergence): 100; Horseweed plant response rating (Canada horseweed; 125 g ai/ha, preemergence): 100; Plant response rating, Horseweed (Canada horseweed; Preemergence, 31 g ai/ha): 100; Plant response rating, Spanishneedles (spanishneedles; 16 g ai/ha, preemergence): 30; Spanishneedles plant response rating (spanishneedles; 125 g ai/ha, preemergence): 100; Plant response rating, Spanishneedles (spanishneedles; Preemergence, 62 g ai/ha): 75; Plant response rating, Spanishneedles (spanishneedles; Preemergence, 31 g ai/ha): 65
3 | Cn1nc(C(F)(F)F)c(C[S+]([O-])c2ccc(F)c[n+]2[O-])c1OCC(F)(F)F (stereo not shown) [Compound 67] | 30 | 100 | 100 | 100 | 0 | 10 | 50 | 50 | 0 | 0 | 10 | 10 | 0 | 60 | 70 | 100 | 100 | 95 | 100 | 100 | Plant response rating, Chickweed (chickweed; 250 g ai/ha): 95; Plant response rating, Guineagrass (guineagrass; 16 g ai/ha, preemergence): 0; Plant response rating, Sowthistle (common sowthistle; 16 g ai/ha, preemergence): 80; Plant response rating, Sowthistle (common sowthistle; Preemergence, 31 g ai/ha): 80; Chickweed plant response rating (common chickweed; 62 g ai/ha, Preemergence): 100; Chickweed plant response rating (common chickweed; 125 g ai/ha, preemergence): 100; Plant response rating, Chickweed (common chickweed; Preemergence, 31 g ai/ha): 40; Plant response rating, Horseweed (Canada horseweed; 16 g ai/ha, preemergence): 0; Horseweed plant response rating (Canada horseweed; 62 g ai/ha, Preemergence): 100; Horseweed plant response rating (Canada horseweed; 125 g ai/ha, preemergence): 100; Plant response rating, Horseweed (Canada horseweed; Preemergence, 31 g ai/ha): 0; Plant response rating, Spanishneedles (spanishneedles; 16 g ai/ha, preemergence): 0; Spanishneedles plant response rating (spanishneedles; 125 g ai/ha, preemergence): 98; Plant response rating, Spanishneedles (spanishneedles; Preemergence, 62 g ai/ha): 90; Plant response rating, Spanishneedles (spanishneedles; Preemergence, 31 g ai/ha): 65
4 | Cn1nc(C(F)(F)F)c(C[S+]([O-])c2ccc(F)c[n+]2[O-])c1OC(F)F (stereo not shown) [Compound 58] | 20 | 40 | 70 | 95 | 0 | 0 | 20 | 30 | 0 | 0 | 0 | 0 | 30 | 60 | 60 | 100 | 100 | 90 | 100 | 100 | Guineagrass plant response rating (guineagrass; 250 g ai/ha, preemergence): 100; Sowthistle plant response rating (common sowthistle; 250 g ai/ha, preemergence): 100; Plant response rating, Sowthistle (common sowthistle; Preemergence, 31 g ai/ha): 0; Chickweed plant response rating (common chickweed; 62 g ai/ha, Preemergence): 95; Chickweed plant response rating (common chickweed; 125 g ai/ha, preemergence): 100; Chickweed plant response rating (common chickweed; 250 g ai/ha, preemergence): 100; Horseweed plant response rating (Canada horseweed; 62 g ai/ha, Preemergence): 98; Horseweed plant response rating (Canada horseweed; 125 g ai/ha, preemergence): 98; Horseweed plant response rating (Canada horseweed; 250 g ai/ha, preemergence): 100; Plant response rating, Horseweed (Canada horseweed; Preemergence, 31 g ai/ha): 98; Spanishneedles plant response rating (spanishneedles; 125 g ai/ha, preemergence): 65; Spanishneedles plant response rating (spanishneedles; 250 g ai/ha, preemergence): 100; Plant response rating, Spanishneedles (spanishneedles; Preemergence, 62 g ai/ha): 50; Plant response rating, Spanishneedles (spanishneedles; Preemergence, 31 g ai/ha): 50

From patent US20100298141A1, “SUBSTITUTED PYRIDINE N-OXIDE HERBICIDES” (E. I. DU PONT DE NEMOURS AND COMPANY, priority 2007, published 2010)
